{"source": "patent US10568930B2", "about": "“Agents and methods of treatment” (Hexima Limited, priority 2014, dated 2020)", "key": {"Candida albicans [1]": {"tested_on": "Candida albicans", "test": "Antifungal growth assay, defensin plus proteinase inhibitor", "type": "cell-based", "parameters": "key to Synergy: Io-Ee in % inhibition points; >60 high synergy, <15 none", "conditions": "for Expected inhibition: Ee, Limpel formula; for Synergy: Io-Ee", "procedure": "(§1) Spores are isolated from sporulating fungus spp. growing on yeast extract peptone dextrose agar (Candida albicans, Cryptococcus gattii—1.5×10^6) or ½ strength Sabouraud dextrose agar (Trichophyton interdigitale, Microsporum fulvum—5×10^4). Spores are removed from the plates by the addition of ½ strength potato dextrose broth (PDB). Spore concentrations are measured using a haemocytometer.\n(§2) Antifungal assays were conducted in 96 well microtitre plates. Wells were loaded with 10 μL of filter sterilized (0.22 μm syringe filter, Millipore) defensin (10× stock for each final concentration) or water, 10 μL, of filter sterilized (0.22 μm syringe filter, Millipore) proteinase inhibitor or chemical fungicide (10× stock for each final concentration) or water and 80 μL of 5×10^3 spores/mL in ½ strength PDB. The plates were incubated at 24° C. Fungal growth was assayed by measuring optical density at 595 nm (A595) using a microtitre plate reader (SpectraMax Pro M2; Molecular Devices. Growth was allowed to proceed until the optical density (OD) of the fungus in the absence of any test defensin reached an OD of 0.2. Each test was performed in duplicate.\n(§3) Synergy is classified as the difference between the observed % fungal growth inhibition caused by the combination of a defensin and a proteinase inhibitor (or a defensin and a chemical fungicide) (Io value) and the expected % fungal growth inhibition of the defensin and the proteinase inhibitor (or the defensin and the chemical fungicide) based on the sum of the % fungal growth inhibition of the defensin and the proteinase inhibitor (or the defensin and the chemical fungicide) on their own (Ee value calculated according to the Limpel formula used by Richer et al. (1987) supra). The difference, Io-Ee, is the synergy value. A synergy value up to 15 means no significant synergy; 15-30 is a low level of synergy; 30-60 is a medium level of synergy; and >60 is a high level of synergy. Synergy calculations are presented in Tables 2 through 7 wherein, as indicated above, Ee is the expected effect from the additive response according to Limpel's formula expressed as percent inhibition and To is the percent inhibition observed. Synergy occurs when To values are higher than Ee values."}, "Cryptococcus gattii": {"tested_on": "Cryptococcus gattii", "test": "Antifungal growth assay, defensin plus proteinase inhibitor", "type": "cell-based", "conditions": "for Expected inhibition: Ee, Limpel formula; for Synergy: Io-Ee", "procedure": "as §1, §2, §3"}, "[2]": {"tested_on": "Trichophyton interdigitale", "test": "Antifungal growth assay, defensin plus proteinase inhibitor", "type": "cell-based", "conditions": "for Expected inhibition: Ee, Limpel formula; for Synergy: Io-Ee", "procedure": "as §1, §2, §3"}, "Candida albicans [3]": {"tested_on": "Candida albicans", "test": "Antifungal growth assay, defensin plus chemical fungicide", "type": "cell-based", "parameters": "key to Synergy: Io-Ee in % inhibition points; <15 none, 15-30 low, 30-60 medium, >60 high", "conditions": "for Expected inhibition: Ee, Limpel formula; for Synergy: Io-Ee", "procedure": "Chemical fungicides were sourced commercially and were prepared as 10× stock solutions in H2O (caspofungin and fenpropimorph) or as a 100× stock in methanol (terbinafine).\nas §1, §2, §3"}, "Microsporum fulvum": {"tested_on": "Microsporum fulvum", "test": "Antifungal growth assay, defensin plus proteinase inhibitor", "type": "cell-based", "conditions": "for Expected inhibition: Ee, Limpel formula; for Synergy: Io-Ee", "procedure": "as §1, §2, §3"}, "plasma membrane": {"tested_on": "plasma membrane", "conditions": "cited from earlier work"}, "[4]": {"conditions": "defensin 2 μM + BPTI (0.625 μM)"}, "[5]": {"conditions": "defensin 2 μM + HyCPI6 (2.5 μM)"}, "[6]": {"conditions": "defensin 2 μM + SlCys9N (2.5 μM)"}, "[7]": {"conditions": "defensin 0.5 μM + BPTI (0.625 μM)"}, "[8]": {"conditions": "defensin 0.5 μM + HvCPI6 (2.5 μM)"}, "[9]": {"conditions": "defensin 0.5 μM + SlCys9N (2.5 μM)"}, "[10]": {"conditions": "defensin 1.5 μM + Caspofungin (2 ng/ml)"}, "[11]": {"conditions": "defensin 1.5 μM + Fenpropimorph (2 ug/ml)"}, "[12]": {"conditions": "defensin 1.5 μM + Terbinafine (4 ng/ml)"}, "[13]": {"conditions": "defensin 2 μM + HvCPI6 (2.5 μM)"}, "[14]": {"conditions": "defensin 0.5 μM + HyCPI6 (0.625 μM)"}, "[15]": {"conditions": "defensin 0.5 μM + SlCys9N (5 μM)"}, "[16]": {"conditions": "defensin 1 μM + BPTI (0.625 μM)"}, "[17]": {"conditions": "defensin 1 μM + HvCPI6 (2.5 μM)"}, "[18]": {"conditions": "defensin 1 μM + SlCys9N (2.5 μM)"}, "[19]": {"conditions": "permeabilizing defensin 1 μM + Caspofungin (2 ng/ml)"}}, "note": "Like-named read-outs stand apart in the source and are kept apart here.", "data": [{"substance": "HXP4: artificial (synthetic) defensin variant, SEQ ID NO:8; permeabilizing (RECKTESHRFKGPCITKPPCRKACISEKFTDGHCSKILRRCLCTKPC; HXP4 protein)", "values": [{"measurement": "Observed inhibition", "setting": "Candida albicans [1]; [4]", "value": 100, "unit": "%"}, {"measurement": "Expected inhibition", "setting": "Candida albicans [1]; [4]", "value": 16.2, "unit": "%"}, {"measurement": "Synergy", "setting": "Candida albicans [1]; [4]", "value": 83.8}, {"measurement": "Observed inhibition", "setting": "Candida albicans [1]; [5]", "value": 93.5, "unit": "%"}, {"measurement": "Expected inhibition", "setting": "Candida albicans [1]; [5]", "value": 15.9, "unit": "%"}, {"measurement": "Synergy", "setting": "Candida albicans [1]; [5]", "value": 77.6}, {"measurement": "Observed inhibition", "setting": "Candida albicans [1]; [6]", "value": 92.4, "unit": "%"}, {"measurement": "Expected inhibition", "setting": "Candida albicans [1]; [6]", "value": 33, "unit": "%"}, {"measurement": "Synergy", "setting": "Candida albicans [1]; [6]", "value": 59.4}, {"measurement": "Observed inhibition", "setting": "Cryptococcus gattii; [7]", "value": 97.4, "unit": "%"}, {"measurement": "Expected inhibition", "setting": "Cryptococcus gattii; [7]", "value": 48.8, "unit": "%"}, {"measurement": "Synergy", "setting": "Cryptococcus gattii; [7]", "value": 48.6}, {"measurement": "Observed inhibition", "setting": "Cryptococcus gattii; [8]", "value": 97.4, "unit": "%"}, {"measurement": "Expected inhibition", "setting": "Cryptococcus gattii; [8]", "value": 18.6, "unit": "%"}, {"measurement": "Synergy", "setting": "Cryptococcus gattii; [8]", "value": 78.8}, {"measurement": "Observed inhibition", "setting": "Cryptococcus gattii; [9]", "value": 99.3, "unit": "%"}, {"measurement": "Expected inhibition", "setting": "Cryptococcus gattii; [9]", "value": 0.0, "unit": "%"}, {"measurement": "Synergy", "setting": "Cryptococcus gattii; [9]", "value": 99.3}, {"measurement": "Observed inhibition", "setting": "[2]; [7]", "value": 69.0, "unit": "%"}, {"measurement": "Expected inhibition", "setting": "[2]; [7]", "value": 32.9, "unit": "%"}, {"measurement": "Synergy", "setting": "[2]; [7]", "value": 36.1}, {"measurement": "Observed inhibition", "setting": "[2]; [8]", "value": 56.8, "unit": "%"}, {"measurement": "Expected inhibition", "setting": "[2]; [8]", "value": 31.1, "unit": "%"}, {"measurement": "Synergy", "setting": "[2]; [8]", "value": 25.7}, {"measurement": "Observed inhibition", "setting": "[2]; [9]", "value": 53.0, "unit": "%"}, {"measurement": "Expected inhibition", "setting": "[2]; [9]", "value": 9.7, "unit": "%"}, {"measurement": "Synergy", "setting": "[2]; [9]", "value": 43.4}, {"measurement": "Observed inhibition", "setting": "Candida albicans [3]; [10]", "value": 64.5, "unit": "%"}, {"measurement": "Expected inhibition", "setting": "Candida albicans [3]; [10]", "value": 14.5, "unit": "%"}, {"measurement": "Synergy", "setting": "Candida albicans [3]; [10]", "value": 50.0}, {"measurement": "Observed inhibition", "setting": "Candida albicans [3]; [11]", "value": 97.6, "unit": "%"}, {"measurement": "Expected inhibition", "setting": "Candida albicans [3]; [11]", "value": 15, "unit": "%"}, {"measurement": "Synergy", "setting": "Candida albicans [3]; [11]", "value": 82.6}, {"measurement": "Observed inhibition", "setting": "Candida albicans [3]; [12]", "value": 82.7, "unit": "%"}, {"measurement": "Expected inhibition", "setting": "Candida albicans [3]; [12]", "value": 44.8, "unit": "%"}, {"measurement": "Synergy", "setting": "Candida albicans [3]; [12]", "value": 37.9}]}, {"substance": "NaD1: Solanaceous Class II plant defensin from flowers of Nicotiana alata (Q8GTMO); permeabilizing defensin (RECKTESNTFPGICITKPPCRKACISEKFTDGHCSKILRRCLCTKPC; UniProt Q8GTM0 26-72, looked up)", "values": [{"measurement": "Observed inhibition", "setting": "Candida albicans [1]; [4]", "value": 94.1, "unit": "%"}, {"measurement": "Expected inhibition", "setting": "Candida albicans [1]; [4]", "value": 29.7, "unit": "%"}, {"measurement": "Synergy", "setting": "Candida albicans [1]; [4]", "value": 64.4}, {"measurement": "Observed inhibition", "setting": "Candida albicans [1]; [5]", "value": 64.7, "unit": "%"}, {"measurement": "Expected inhibition", "setting": "Candida albicans [1]; [5]", "value": 0.0, "unit": "%"}, {"measurement": "Synergy", "setting": "Candida albicans [1]; [5]", "value": 64.7}, {"measurement": "Observed inhibition", "setting": "Candida albicans [1]; [6]", "value": 94.8, "unit": "%"}, {"measurement": "Expected inhibition", "setting": "Candida albicans [1]; [6]", "value": 31.9, "unit": "%"}, {"measurement": "Synergy", "setting": "Candida albicans [1]; [6]", "value": 62.9}, {"measurement": "Observed inhibition", "setting": "Cryptococcus gattii; [4]", "value": 95.6, "unit": "%"}, {"measurement": "Expected inhibition", "setting": "Cryptococcus gattii; [4]", "value": 22.0, "unit": "%"}, {"measurement": "Synergy", "setting": "Cryptococcus gattii; [4]", "value": 73.7}, {"measurement": "Observed inhibition", "setting": "Cryptococcus gattii; [13]", "value": 96.2, "unit": "%"}, {"measurement": "Expected inhibition", "setting": "Cryptococcus gattii; [13]", "value": 32.1, "unit": "%"}, {"measurement": "Synergy", "setting": "Cryptococcus gattii; [13]", "value": 64.1}, {"measurement": "Observed inhibition", "setting": "Cryptococcus gattii; [6]", "value": 98.8, "unit": "%"}, {"measurement": "Expected inhibition", "setting": "Cryptococcus gattii; [6]", "value": 0.0, "unit": "%"}, {"measurement": "Synergy", "setting": "Cryptococcus gattii; [6]", "value": 98.8}, {"measurement": "Observed inhibition", "setting": "Microsporum fulvum; [7]", "value": 52.9, "unit": "%"}, {"measurement": "Expected inhibition", "setting": "Microsporum fulvum; [7]", "value": 34.3, "unit": "%"}, {"measurement": "Synergy", "setting": "Microsporum fulvum; [7]", "value": 18.6}, {"measurement": "Observed inhibition", "setting": "Microsporum fulvum; [14]", "value": 43.8, "unit": "%"}, {"measurement": "Expected inhibition", "setting": "Microsporum fulvum; [14]", "value": 19.0, "unit": "%"}, {"measurement": "Synergy", "setting": "Microsporum fulvum; [14]", "value": 24.8}, {"measurement": "Observed inhibition", "setting": "Microsporum fulvum; [15]", "value": 79.9, "unit": "%"}, {"measurement": "Expected inhibition", "setting": "Microsporum fulvum; [15]", "value": 40.7, "unit": "%"}, {"measurement": "Synergy", "setting": "Microsporum fulvum; [15]", "value": 39.2}, {"measurement": "Observed inhibition", "setting": "[2]; [16]", "value": 89.1, "unit": "%"}, {"measurement": "Expected inhibition", "setting": "[2]; [16]", "value": 57.9, "unit": "%"}, {"measurement": "Synergy", "setting": "[2]; [16]", "value": 31.2}, {"measurement": "Observed inhibition", "setting": "[2]; [17]", "value": 71.6, "unit": "%"}, {"measurement": "Expected inhibition", "setting": "[2]; [17]", "value": 33.5, "unit": "%"}, {"measurement": "Synergy", "setting": "[2]; [17]", "value": 38.1}, {"measurement": "Observed inhibition", "setting": "[2]; [18]", "value": 81.1, "unit": "%"}, {"measurement": "Expected inhibition", "setting": "[2]; [18]", "value": 28.1, "unit": "%"}, {"measurement": "Synergy", "setting": "[2]; [18]", "value": 53.0}, {"measurement": "Observed inhibition", "setting": "Candida albicans [3]; [19]", "value": 61.7, "unit": "%"}, {"measurement": "Expected inhibition", "setting": "Candida albicans [3]; [19]", "value": 1.2, "unit": "%"}, {"measurement": "Synergy", "setting": "Candida albicans [3]; [19]", "value": 60.5}, {"measurement": "Membrane permeabilization", "setting": "plasma membrane; at concentrations corresponding to the IC50", "value": "significant membrane permeabilization"}, {"measurement": "Membrane permeabilization", "setting": "plasma membrane; at low concentrations that do not cause growth inhibition, van der Weerden et al. (2008)", "value": "some membrane permeabilization"}, {"measurement": "Time at which permeabilization begins", "setting": "plasma membrane; van der Weerden et al. (2010)", "value": "≤ 15", "unit": "min"}, {"measurement": "Time at which permeabilization reaches its maximum", "setting": "plasma membrane; van der Weerden et al. (2010)", "value": 80, "unit": "min"}]}]}
